Measurements as given in patent publication US6828350B1, “Modulators of cysteine protease” (Exegenics Inc., priority 1997, dated 2004).
“And” between values parts separate entries of the source, which are not always exact repeats. Equal values may be shown once. Read-outs that look alike come from different tables or passages of the source.

Legend:
HRV 14 = experiment: Antiviral assay, XTT method, HRV 14; type: cell-based
HRV 16 = experiment: Antiviral assay, XTT method, HRV 16; type: cell-based
Hl-Hela cells [1] = experiment: Cytotoxicity by XTT assay (treated, mock-infected cells); conditions: read-out: TC50; Format 1; concentration that retards cell growth by 50%, mock-infected Hl-Hela cells
[2] = as above; conditions: human, H1-HeLa cells (ATCC), mock-infected
HRV 1A = experiment: Antiviral assay, XTT method, HRV 1A; type: cell-based
HRV 1B = experiment: Antiviral assay, XTT method, HRV 1B; type: cell-based
Apopain (caspase-3) = biological target: T1, Apopain (caspase-3) (Homo sapiens, UniProt P42574); experiment: Apopain (Caspase-3) Regulation Assay (FluorAce Apopain Assay Kit); type: biochemical; conditions: Apopain modulation: Inhibitor or Activator
T1 construct: purchased Bio-rad FluorAce Apopain Assay Kit (booklet 4100119)
T1 sequence (P42574 29-175 limits assumed): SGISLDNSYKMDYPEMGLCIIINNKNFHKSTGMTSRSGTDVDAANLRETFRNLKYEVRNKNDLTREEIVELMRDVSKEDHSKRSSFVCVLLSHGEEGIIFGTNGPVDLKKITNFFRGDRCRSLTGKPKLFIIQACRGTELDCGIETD
T1 sequence (P42574 176-277 limits assumed): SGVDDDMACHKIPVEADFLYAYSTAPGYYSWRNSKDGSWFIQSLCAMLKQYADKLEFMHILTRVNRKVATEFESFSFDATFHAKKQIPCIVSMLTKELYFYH
Experimental: VI: Apopain (Caspase-3) Regulation Assay
The FluorAce™ Apopain Assay Kit (Bio-rad) was employed in multiwell format. Compounds assayed were diluted 5-fold in distilled water (from stock solutions in ethanol or DMSO) and centrifuged (5′, 14K rpm). 10 μL of the supernatant was further diluted in wells containing 100 μL distilled water and 40 μL 6×Buffer (41.7 mM PIPES, pH 7.4, 8.3 mM EDTA, 0.42% CHAPS, 20.8 mM DTT). This process was carried out twice to yield duplicate wells for each compound. Control wells were prepared by addition of EtOH and DMSO (5-fold diluted in distilled water) into wells containing 6×Buffer and distilled water (40 μL and 100 μL, respectively), to form 8 wells with each solvent. Enzyme (stock solution 10-fold diluted in distilled water, see Bio-rad booklet 4100119) was added to one set of compound-containing cells and to 8 control wells (4 with ethanol and 4 with DMSO). The plate was preincubated for ˜80′ at 27°-28° C. Substrate (Z-DEVD-AFC, 490 μM, 40 μL) was then added to all wells. The plate was left at room temperature and fluorescence (360/40↑530/20↓) was measured at several time points (FL500 fluorimetric reader, Bio-tek instruments). Fluorescence at enzyme-containing wells was background-subtracted at each time point and initial rates were determined by linear regression (typically R^2>0.97). Percentage inhibition and activation was determined by relating the slope with compound to the control slope (with appropriate solvent). IC50 values are extrapolated.

[3] = test system: elastase present in erythrocytes; conditions: background, in words; cited from earlier work
3C protease = conditions: background, in words; cited from earlier work
Hl-Hela cells [4] = test system: Hl-Hela cells
[5] = HRV 14, Format 1, restores 50% of viral-caused decrease in cell viability

Row | Compound | IC50 (HRV 14; HRV 14, Format 2) | IC50 (HRV 16; HRV 16, Format 2) [µM] | CC50 (Hl-Hela cells [1]) [µM] | IC50 (HRV 14; [5]) [µM] | further results
1 | O=c1cc(-c2ccccc2)oc2c(Cl)c(O)c(Cl)c(O)c12 [compound 100] | 27 ± 25 µM |  |  |  | 
2 | CC(=O)c1c(O)cccc1OCC(N)=O (hydrate or solvate) [SA#121, 2-(2-acetyl-3-hydroxyphenoxy)-acetamide] |  |  |  |  | melting point: 151 to 152 °C
3 | O=C(c1ccccc1)c1ccccc1O [compound 136] | 13 ± 5 µM | 6 ± 3 | 28 ± 2 | 6.3 | 
4 | Cc1cc(O)c(C(=O)c2ccccc2O)cc1Cl [compound 144] | 130 ± 40 µM | 2.1 ± 1.6 |  |  | 
5 | CC(=O)c1c(O)cccc1OCC(N)=O [SA#121, 2-(2-acetyl-3-hydroxyphenoxy)-acetamide] | 120 ± 50 µM | 420 ± 140 |  | 189 | CC50 [2]: 425 ± 8 µM; IC50 (HRV 1A; Format 1): 198 µM
6 | COc1ccc(O)c(C(C)=O)c1 [compound 37] | 220 ± 23 µM | 149 ± 148 |  | 146 | IC50 (HRV 1B; HRV 1B, Format 2): 610 ± 160 µM; CC50 [2]: > 1250 µM; IC50 (HRV 1A; Format 2): 830 ± 330 µM; Activity (Apopain (caspase-3)): Inhibitor
7 | O=Cc1cc(Cl)cc(Cl)c1O [compound 33] | 14 ± 3 µM | 6 ± 1 |  |  | IC50 (HRV 1B; HRV 1B, Format 2): 4 ± 1 µM; IC50 (HRV 1A; Format 2): 9 ± 1 µM; Activity (Apopain (caspase-3)): Inhibitor
8 | C[C@H]1CC2=C(C(=O)c3c(O)cc(O)cc3C2=O)[C@H](O)O1 [Thysanone] |  |  |  |  | inhibition of elastase [3]: efficient inhibitor; inhibition of the 3C protease (3C protease): inhibitor of the 3C protease
9 | CCCCCC(=O)c1cc(Cl)c(O)c(Cl)c1O [SA#116] | 50 ± 7 µM | 61 ± 37 | 24 ± 6 | 13 | IC50 (HRV 16; HRV 16, Format 1): 21 µM
10 | O=Cc1cc([N+](=O)[O-])ccc1O [compound 46] | 170 ± 100 µM |  |  |  | Activity (Apopain (caspase-3)): Inhibitor
11 | CC(=O)c1c(O)cc(O)cc1O [SA#110] |  |  |  | 192 | IC50 (HRV 16; HRV 16, Format 1): 425 µM; CC50 [2]: 548 ± 27 µM; Activity (Apopain (caspase-3)): Inhibitor
12 | O=C(NCc1ccccc1)c1cc([N+](=O)[O-])cc([N+](=O)[O-])c1O [SA#120] | 40 ± 33 µM | 30 ± 8 |  | 30 | CC50 (Hl-Hela cells [4]): 271 ± 22 µM
13 | CC(=O)c1c(O)c(Cl)cc(Cl)c1O [SA#109] | 590 ± 320 µM |  |  |  | Activity (Apopain (caspase-3)): Inhibitor
14 | CC(=O)c1cc(Cl)cc(Cl)c1O [compound 29] | 6 ± 2 µM | 6 ± 2 | 29 ± 8 | 4.8 | IC50 (HRV 1B; HRV 1B, Format 2): 8 ± 5 µM; IC50 (HRV 1A; Format 2): 19 ± 8 µM
15 | CC(=O)c1cc(Cl)cc([N+](=O)[O-])c1O [compound 31] | 11 ± 1 µM | 35 ± 26 | 12 ± 1 | 14 | IC50 (HRV 1A; Format 2): 80 ± 62 µM
16 | O=C(c1ccccc1O)c1cc(Cl)ccc1O [compound 137] |  |  |  | 0.6 | IC50 (HRV 1A; Format 1): 6.2 µM
17 | COC(=O)c1c(O)cc(C)cc1O [compound 147] |  | 70 ± 50 |  |  | 
18 | CCCCCC(=O)c1c(O)c(Cl)c(OC)c(Cl)c1OCC(N)=O [compound 118] |  |  | 122 ± 6 | 380 | IC50 (HRV 1A; Format 1): 81 µM
19 | O=C(CCc1ccc(O)cc1)c1c(O)cc(O)cc1O [compound 91] | 9 ± 4 µM | 50 ± 10 |  |  | IC50 (HRV 1B; HRV 1B, Format 2): 26 ± 15 µM; IC50 (HRV 1A; Format 2): 130 ± 14 µM; Activity (Apopain (caspase-3)): Inhibitor
20 | CC(=O)c1cc(O)ccc1O [compound 8] | 230 ± 170 µM | 35 ± 7 |  |  | IC50 (HRV 1B; HRV 1B, Format 2): 33 ± 3 µM; IC50 (HRV 1A; Format 2): 141 ± 25 µM; Activity (Apopain (caspase-3)): Inhibitor
21 | CC(=O)c1cc(Br)ccc1O [compound 28] | 91 ± 62 µM | 159 ± 44 | 1230 ± 610 | 6.2 | 
22 | CC(=O)c1cc(F)ccc1O [compound 27] |  | 47 ± 8 |  | 444 | CC50 [2]: > 1250 µM; Activity (Apopain (caspase-3)): Inhibitor
23 | Cc1ccc(O)c(C(=O)c2ccccc2O)c1 [compound 143] |  | 8 ± 8 |  |  | 
24 | CCCCCC(=O)c1c(O)cc(O)c(Cl)c1OC [compound 125] |  |  | 50 ± 5 | 45 | IC50 (HRV 16; HRV 16, Format 1): 60 µM
25 | CC(=O)c1c(O)cccc1O [compound 9] | 110 ± 14 µM | 200 ± 110 |  |  | Activity (Apopain (caspase-3)): Activator
26 | O=C(c1ccccc1O)c1ccccc1O [compound 131] | 10 µM and 10.5 µM | 0.5 ± 0.4 |  | 0.6 | IC50 (HRV 1A; Format 2): 43 ± 9 µM

Row | Compound | IC50 (HRV 14; HRV 14, Format 2) | IC50 (HRV 16; HRV 16, Format 2) [µM] | CC50 (Hl-Hela cells [1]) [µM] | IC50 (HRV 14; [5]) [µM] | further results
27 | O=C(NCCc1ccccc1)c1cc([N+](=O)[O-])cc([N+](=O)[O-])c1O [SA#127] | 16 ± 4 µM | 15 ± 4 |  | 23 | CC50 (Hl-Hela cells [4]): 187 ± 18 µM; IC50 (HRV 1B; HRV 1B, Format 2): 11 ± 1 µM; IC50 (HRV 1A; Format 2): 13 ± 3 µM
28 | CCC(=O)c1cc(O)ccc1O [compound 36] | 32 ± 4 µM | 44 ± 15 | 1720 ± 660 | 27 | 
29 | COc1cc(O)c(C(C)=O)c(OC)c1 [compound 14] |  |  | 780 ± 206 |  | IC50 (HRV 16; HRV 16, Format 1): 225 µM
30 | CC(=O)c1ccccc1O [compound 6] | 210 ± 170 µM |  |  |  | 
31 | CCOC(=O)c1c(O)cc(O)c(C(C)=O)c1O [SA#132] |  |  | 29 ± 5 | 17 | IC50 (HRV 1B; HRV 1B, Format 1): 24 µM; IC50 (HRV 1A; Format 1): 13 µM
32 | O=C(CCc1ccccc1)c1ccccc1O [compound 42] | 120 ± 40 µM |  |  |  | IC50 (HRV 1B; HRV 1B, Format 2): 29 ± 1 µM; IC50 (HRV 1A; Format 2): 210 ± 70 µM
33 | O=Cc1c(O)cc(O)cc1O [compound 34] |  |  | 410 ± 30 | 94 | 
34 | O=c1c(O)c(-c2ccc(O)cc2)oc2cc(O)cc(O)c12 [compound 90] | 1.2 ± 0.5 µM | 7 ± 4 |  |  | IC50 (HRV 1B; HRV 1B, Format 2): 7 ± 4 µM; IC50 (HRV 1A; Format 2): 5 ± 1 µM
35 | O=Cc1cc(I)cc(I)c1O [compound 47] | 12 ± 2 µM |  |  |  | Activity (Apopain (caspase-3)): Activator
36 | CC(=O)c1cc(C)cc([N+](=O)[O-])c1O [compound 30] | 31 ± 12 µM | 29 ± 24 |  | 55 | CC50 [2]: 67 ± 8 µM; Activity (Apopain (caspase-3)): Inhibitor
37 | O=c1cc(-c2ccccc2)oc2cc(O)cc(O)c12 [compound 83] | 250 ± 90 µM |  |  |  | 
38 | CCCCCCCCNC(=O)c1cc([N+](=O)[O-])cc([N+](=O)[O-])c1O [SA#128] | 31 ± 6 µM | 4 ± 3 |  | 152 | CC50 (Hl-Hela cells [4]): 429 ± 42 µM
39 | CCCCCC(=O)c1ccc(O)cc1O [compound 114] | 40 ± 30 µM | 70 ± 60 |  |  | 
40 | COc1ccc(C(=O)c2ccccc2O)c(O)c1 [compound 1] | 23 ± 20 µM | 165 ± 134 | 50 ± 10 | 16 | 
41 | CC(=O)c1ccc(O)cc1O [compound 7] |  | 810 ± 180 |  |  | 
42 | CC(=O)c1cc(Br)cc(Br)c1O [compound 38] | 10 ± 2 µM | 6 ± 2 | 59 ± 4 | 26 | 
43 | CC(=O)c1cccc(C#N)c1O [SA#51] |  |  |  |  | Activity (Apopain (caspase-3)): Inhibitor
44 | O=C(c1ccccc1O)c1cc(Br)ccc1O [compound 142] | 59 ± 4 µM | 27 ± 27 |  |  | IC50 (HRV 1A; Format 2): 25 ± 12 µM
45 | CC(=O)c1cc(Cl)c(C)cc1O [compound 41] | 160 ± 70 µM |  |  |  | 
46 | CCCCCC(=O)c1c(O)c(Cl)c(OC)c(Cl)c1O [SA#15] | 5 ± 1 µM | 1.4 ± 0.8 |  |  | Activity (Apopain (caspase-3)): Activator
47 | CC(=O)c1cc(Cl)ccc1O [compound 12] | 150 µM and 290 µM | 590 ± 300 | > 2500 |  | IC50 (HRV 1B; HRV 1B, Format 2): 305 ± 55 µM; IC50 (HRV 16; HRV 16, Format 1): 137 µM
48 | CCCCCC(=O)c1c(OC)cc(O)c(Cl)c1O [SA#134] | 122 ± 14 µM | 13 ± 6 | 48 ± 6 | 63 | IC50 (HRV 16; HRV 16, Format 1): 12 µM
49 | C/C=C/c1cc2c(c(=O)o1)C(=O)[C@@H](O)[C@H](C)O2 [radicinin] |  |  |  |  | inhibition of the 3C protease (3C protease): lower level of inhibition than thysanone
50 | O=C(CCc1ccccc1)c1cc(Cl)ccc1O [SA#43] |  |  |  |  | IC50 (HRV 1B): 40 ± 10 µM; IC50 (HRV 16): 340 ± 70 µM; IC50 (HRV 14): 30 ± 20 µM
51 | CC(=O)c1c(O)ccc2ccccc12 [compound 35] | 42 ± 20 µM | 38 ± 14 | 180 ± 10 | 62 | IC50 (HRV 1B; HRV 1B, Format 2): 240 ± 140 µM; IC50 (HRV 1A; Format 2): 630 ± 470 µM
